Laboratory results taken from article PMC6361841, “Repurposing of Drugs as Novel Influenza Inhibitors From Clinical Gene Expression Infection Signatures” (Frontiers in Immunology, 2019).
Where a name gives a salt, the structure may show the parent alone. Read-outs that look alike come from different tables or passages of the source.

Experiments:
[1] = system: A/Lyon/969/09 (H1N1)pdm09 virus; test: microbe, parasite or virus in culture; type: cell-based, influenza A(H1N1)pdm09 virus
B/Massachusetts/2/2106 = test: Antiviral efficacy in A549 cells, B strain; type: cell-based, influenza virus
A/Texas/126/2016 (H3N2) = test: Antiviral efficacy in A549 cells, H3N2 strain; type: cell-based, influenza virus
[2] = system: influenza A/Quebec/144147/09 (H1N1)pdm09 virus; type: in vivo, C57BL/6N mice; settings: […]; for Survival: mg/kg/day: oseltamivir 10, monensin 10, diltiazem 90, etilefrine 3; for Weight loss: oseltamivir 10, monensin 10, diltiazem 90 mg/kg/day
A(H1N1)pdm09 virus = type: cell-based, influenza virus; settings: for Viral titer, Dilution #2: virus 10^5 TCID50/mL pre-incubated 1 h; for Viral titer, Dilution #2 / Viral titer, Dilution #1: diltiazem 9 µM, etilefrine 18 µM, oseltamivir 1 µM; for Viral titer, Dilution #1: virus 10^6 TCID50/mL pre-incubated 1 h; for Mean relative Viral production: virus pre-incubated 1 h, relative to PBS control
[3] = system: influenza A/Quebec/144147/09 (H1N1)pdm09 virus; type: in vivo, C57BL/6N mice; settings: for Clinical benefit in terms of survival vs saline (placebo) group: mg/kg/day: oseltamivir 10, monensin 10, diltiazem 90, etilefrine 3, lanatoside C 100, prednisolone 5, flucytosine 240, felbinac 5, timolol 50; for Weight loss vs saline (placebo) group: oseltamivir 10, diltiazem 90, etilefrine 3 mg/kg/day
[4] = system: A/Lyon/969/09 (H1N1)pdm09 virus; test: microbe, parasite or virus in culture; type: cell-based, influenza A(H1N1)pdm09 virus; settings: Influenza A virus, 6 h pre-treatment only, A549, Figure 2B
[5] = system: MucilAir® human airway epithelium; type: cell-based
[6] = system: influenza A/Lyon/969/09 (H1N1)pdm09 virus; type: cell-based
[7] = Influenza A virus, H1N1, 48 h, pre-treatment/treatment in vitro, A549, […], read-out: EC50
[8] = pre-treatment/treatment in vitro, A549, […], read-out: EC50
[9] = 24 h p.i., oseltamivir 0.1 µM, diltiazem 9 µM or both
[10] = 48 h p.i., oseltamivir 0.1 µM, diltiazem 9 µM or both
[11] = 96 h p.i., oseltamivir 0.1 µM, diltiazem 9 µM or both
[12] = oseltamivir 1 μM, diltiazem 90 μM

CCN(CC)CCOC(=O)C(c1ccccc1)c1ccccc1 [Adiphenine]
EC50 [1, 7]: 6.29 nM

N=C(N)NC(=O)c1nc(Cl)c(N)nc1N [Amiloride]
EC50 [1, 7]: 0.41 nM

O=c1cc(-c2ccc(O)cc2)oc2cc(O)cc(O)c12 [Apigenin]
EC50 [1, 7]: 0.21 nM

CC1(C)S[C@@H]2[C@H](NC(=O)Cc3ccccc3)C(=O)N2[C@H]1C(=O)O [Benzathin Benzylpenicilline, Benzathine benzylpenicillin]
EC50 [1, 8]: 0.26 nM

OC(CCN1CCCCC1)(c1ccccc1)C1CC2C=CC1C2 (centres unmarked) [Biperiden]
EC50 [1, 7]: 0.38 nM

O=NN(CCCl)C(=O)NCCCl [Carmustine]
EC50 [1, 7]: 0.07 nM

CN(C)CCN(Cc1ccc(Cl)cc1)c1ccccn1 [Choropyramine, Chloropyramine]
EC50 [1, 7]: 0.07 nM

CCCCCCC[N+](CC)(CC)CCCCc1ccc(Cl)cc1 [Clofilium tosylate]
EC50 [1, 8]: 0.16 nM

CCNCC(O)c1cccc(O)c1 (centres unmarked) [Etilefrine]
Relative Viral production (B/Massachusetts/2/2106; dose CMAP): 7.3 % of mock-treated | Viral titer (B/Massachusetts/2/2106; dose CMAP): 3.97 log TCID50/ml | Relative Viral production (B/Massachusetts/2/2106; dose CMAP/10): 15.0 % of mock-treated | Viral titer (B/Massachusetts/2/2106; dose CMAP/10): 4.3 log TCID50/ml | EC50 [1, 7]: 0.34 nM | Relative Viral production (A/Texas/126/2016 (H3N2); dose CMAP): 1 % of mock-treated | Viral titer (A/Texas/126/2016 (H3N2); dose CMAP): 3.63 log TCID50/ml | Relative Viral production (A/Texas/126/2016 (H3N2); dose CMAP/10): 14.7 % of mock-treated | Viral titer (A/Texas/126/2016 (H3N2); dose CMAP/10): 4.8 log TCID50/ml | Survival [2]: 50% | Effect of virus pre-incubation on final viral titers vs PBS-incubated controls (A(H1N1)pdm09 virus; pre-incubation before infection): did not affect final viral titers | Viral titer, Dilution #2 (A(H1N1)pdm09 virus): 4.63 log TCID50/ml | Viral titer, Dilution #1 (A(H1N1)pdm09 virus): 5.30 log TCID50/ml | Mean relative Viral production (A(H1N1)pdm09 virus): 100.0 % of mock-treated | Clinical benefit in terms of survival vs saline (placebo) group [3]: significantly improved survival | Weight loss vs saline (placebo) group [3]: significantly improved | Reduction in lung viral titers (LVTs) on day 5 p.i. ([3]; mouse, in vivo): at least 1 log

O=C(O)Cc1ccc(-c2ccccc2)cc1 [Felbinac]
EC50 [1, 7]: 34.4 nM | Clinical benefit in terms of survival vs saline (placebo) group [3]: no clinical benefit

Nc1[nH]c(=O)ncc1F [Flucytosine]
EC50 [1, 7]: 2.02 nM | Clinical benefit in terms of survival vs saline (placebo) group [3]: no clinical benefit

Nc1nc(=O)c2nc(CNc3ccc(C(=O)N[C@@H](CCC(=O)O)C(=O)O)cc3)cnc2[nH]1 [Folic acid]
EC50 [1, 7]: 0.22 nM

CC(=O)O[C@H]1C[C@@]2(C)[C@@H](C[C@@H](O)[C@H]3[C@@]4(C)CC[C@@H](O)[C@@H](C)[C@@H]4CC[C@@]32C)/C1=C(\CCC=C(C)C)C(=O)O [Fusidic acid]
EC50 [1, 7]: 0.038 nM

O=c1c(-c2ccc(O)cc2)coc2cc(O)cc(O)c12 [Genistein]
EC50 [1, 7]: 1.06 nM

CNC(C)C1CCC(N)C(OC2C(N)CC(N)C(OC3OCC(C)(O)C(NC)C3O)C2O)O1 (centres unmarked) [Gentamycin, Gentamicin]
EC50 [1, 7]: 0.039 nM

CC(=O)O[C@H]1C[C@H](O[C@H]2[C@@H](O)C[C@H](O[C@H]3[C@@H](O)C[C@H](O[C@H]4CC[C@@]5(C)[C@H](CC[C@@H]6[C@@H]5C[C@@H](O)[C@]5(C)[C@@H](C7=CC(=O)OC7)CC[C@]65O)C4)O[C@@H]3C)O[C@@H]2C)O[C@H](C)[C@H]1O[C@@H]1O[C@H](CO)[C@@H](O)[C@H](O)[C@H]1O [Lanatoside C]
Clinical benefit in terms of survival vs saline (placebo) group [3]: no clinical benefit

CC[C@@]1([C@@H]2O[C@@H]([C@H]3O[C@@](O)(CO)[C@H](C)C[C@@H]3C)C[C@@H]2C)CC[C@H]([C@]2(C)CC[C@]3(C[C@H](O)[C@@H](C)[C@@H]([C@@H](C)[C@@H](OC)[C@H](C)C(=O)O)O3)O2)O1 [Monensin]
EC50 [4]: 110 nM | EC50 [1, 7]: 3.27 nM | Survival [2]: completely prevented mortality | Weight loss [2]: reduced weight loss | Clinical benefit in terms of survival vs saline (placebo) group [3]: clinical improvement

CCOC(=O)C1=C[C@@H](OC(CC)CC)[C@H](NC(C)=O)[C@@H](N)C1 [Oseltamivir]
Δ TEER (CI95) [5, 9]: 8.98 (-81.72 – 99.68) Ohm/cm^2 | Δ TEER (CI95) ([5]; 24 h p.i., oseltamivir 1 µM, diltiazem 90 µM or both): -24.32 (-58.00 – 9.36) Ohm/cm^2 | Δ TEER (CI95) [5, 10]: 20.09 (-39.75 – 79.94) Ohm/cm^2 | Δ TEER (CI95) ([5]; 48 h p.i., oseltamivir 1 µM, diltiazem 90 µM or both): 7.26 (-85.73 – 100.3) Ohm/cm^2 | Δ TEER (CI95) [5, 11]: -209.2 (-271.5 – -146.8) Ohm/cm^2 | TEER during the time-course of infection ([5]; oseltamivir 1 μM, diltiazem 90 μM or both): stabilized TEER | Apical viral titer log TCID50/ml (CI95) [6, 9]: 6.02 (4.69 – 7.35) log TCID50/ml | Apical viral titer log TCID50/ml (CI95) [6, 10]: 8.61 (7.43 – 9.80) log TCID50/ml | Apical viral titer log TCID50/ml (CI95) ([6]; 72 h p.i., oseltamivir 0.1 µM, diltiazem 9 µM or both): 8.30 (7.73 – 8.87) log TCID50/ml | Apical viral titer log TCID50/ml (CI95) [6, 11]: 7.80 (6.56 – 9.04) log TCID50/ml | Apical viral titer log TCID50/ml (CI95) ([6]; 96 h p.i., oseltamivir 1 µM, diltiazem 90 µM or both): 7.09 (5.79 – 8.40) log TCID50/ml | Effect on viral replication vs untreated control ([6]; oseltamivir 0.1 μM, diltiazem 9 μM (CMAP) or both, from 5 h p.i., once daily 5 days): no significant advantage over the untreated control | Reduction in apical viral titers at 48 h p.i. compared to the untreated control [6, 12]: > 3 log | Virus on the basolateral medium [6, 12]: No virus was detected | Delay of the peak of viral production ([6]; oseltamivir 1 μM, diltiazem 90 μM (10-fold CMAP)): 24 h | Reduction in apical peak viral titers compared to the untreated control ([6]; oseltamivir 1 μM, diltiazem 90 μM or both, 48 h p.i. untreated vs. 72 h p.i. treated): > 2 log | Survival [2]: completely prevented mortality | Mice rescued from death ([2]; oseltamivir 10 mg/kg/day, diltiazem 90 mg/kg/day): 40% | Weight loss [2]: reduced weight loss | Viral titer, Dilution #2 (A(H1N1)pdm09 virus): 4.30 log TCID50/ml | Viral titer, Dilution #1 (A(H1N1)pdm09 virus): 5.63 log TCID50/ml | Mean relative Viral production (A(H1N1)pdm09 virus): 130.3 % of mock-treated | Clinical benefit in terms of survival vs saline (placebo) group [3]: clinical improvement | Weight loss vs saline (placebo) group [3]: clinical improvement

CC(C)NCC(O)COc1cccc2[nH]ccc12 (centres unmarked) [Pindolol]
EC50 [1, 7]: 0.79 nM

CNC(=C[N+](=O)[O-])NCCSCc1ccc(CN(C)C)o1 [Ranitidine]
EC50 [4]: 1100 nM | EC50 [1, 7]: 0.68 nM

NC(=O)c1ncn([C@@H]2O[C@H](CO)[C@@H](O)[C@H]2O)n1 [Ribavirin]
EC50 ([1]; Influenza A virus, H1N1, A549, 48 h): 0.86 nM

CC[C@H]1OC(=O)[C@H](C)[C@@H](O[C@H]2C[C@@](C)(OC)[C@@H](O)[C@H](C)O2)[C@H](C)[C@@H](O[C@@H]2O[C@H](C)C[C@H](N(C)C)[C@H]2O)[C@](C)(O)C[C@@H](C)/C(=N\OCOCCOC)[C@H](C)[C@@H](O)[C@]1(C)O [Roxythromycin, Roxithromycin]
EC50 [1, 7]: 0.14 nM

COc1cc(NS(=O)(=O)c2ccc(N)cc2)nc(OC)n1 [Sulfadimethoxine]
EC50 [1, 7]: 0.69 nM

COc1cc(NS(=O)(=O)c2ccc(N)cc2)ncn1 [Sulfamonomethoxine]
EC50 [1, 7]: 0.28 nM

CC(C)(C)NC[C@H](O)COc1nsnc1N1CCOCC1 [Timolol]
Clinical benefit in terms of survival vs saline (placebo) group [3]: no clinical benefit

c1ccc(CC2=NCCN2)cc1 [Tolazoline]
EC50 [1, 7]: 0.93 nM

C[C@H](CCC(=O)O)[C@H]1CC[C@H]2[C@@H]3[C@@H](O)C[C@@H]4C[C@H](O)CC[C@]4(C)[C@H]3CC[C@]12C [Urseodeoxycholic acid, Ursodeoxycholic acid]
EC50 [1, 7]: 0.61 nM

C[C@]12C=CC(=O)C=C1CC[C@@H]1[C@@H]2[C@@H](O)C[C@@]2(C)[C@H]1CC[C@]2(O)C(=O)CO [prednisolone]
Clinical benefit in terms of survival vs saline (placebo) group [3]: no clinical benefit
